Results taken from ChEMBL document CHEMBL1201862, “PubChem BioAssay data set” (2004).
Blank lines part the entries; values can stand above or below the compound they belong to. Activity calls are given as the source filed them. Rule as the data show it, for most assays here: actives have a measured EC50 and inactives only a lower limit.

Legend:
[1] = cells; assay type: functional, cell-based
[2] = cells; assay type: functional, cell-based; remark: listed apart in the source
[3] = Luminescence Cell-Based Dose Response HTS to Identify Activators of Luciferase Translation or Activity in H4 […] Cells. [Related pubchem assays: 1829 (Project Summary), 1814 (Primary HTS)]; assay type: functional
[4] = molecular target: T1, Corticotropin-releasing factor receptor 2/Corticotropin-releasing factor-binding protein (Homo sapiens, UniProt P24387+Q13324); test: Dose Response confirmation of uHTS hits for small molecule antagonists of the CRF-binding protein and CRF-R2 receptor complex.; assay type: functional; conditions: read-out: IC50_Mean
T1 sequence (Q13324 whole entry): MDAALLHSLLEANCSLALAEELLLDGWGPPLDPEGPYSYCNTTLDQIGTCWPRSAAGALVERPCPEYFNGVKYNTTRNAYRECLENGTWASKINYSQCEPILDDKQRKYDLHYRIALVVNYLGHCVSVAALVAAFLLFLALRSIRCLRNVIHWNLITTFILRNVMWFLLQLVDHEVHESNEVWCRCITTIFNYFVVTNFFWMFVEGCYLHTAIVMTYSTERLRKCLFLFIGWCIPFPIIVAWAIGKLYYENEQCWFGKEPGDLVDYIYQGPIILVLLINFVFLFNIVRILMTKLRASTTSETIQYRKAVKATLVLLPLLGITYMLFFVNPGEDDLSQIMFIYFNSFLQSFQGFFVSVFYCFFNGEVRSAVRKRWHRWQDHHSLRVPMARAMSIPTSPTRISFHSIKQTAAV
T1 sequence (P24387 whole entry): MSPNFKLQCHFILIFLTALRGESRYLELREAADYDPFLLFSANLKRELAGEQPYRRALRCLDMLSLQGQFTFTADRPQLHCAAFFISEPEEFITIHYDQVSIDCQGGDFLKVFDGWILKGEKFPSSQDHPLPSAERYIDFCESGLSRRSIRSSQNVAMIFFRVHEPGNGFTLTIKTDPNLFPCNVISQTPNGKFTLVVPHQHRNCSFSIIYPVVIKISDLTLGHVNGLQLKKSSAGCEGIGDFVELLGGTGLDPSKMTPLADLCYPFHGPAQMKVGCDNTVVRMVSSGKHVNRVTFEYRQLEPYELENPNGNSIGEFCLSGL

[5] = molecular target: T1, Corticotropin-releasing factor receptor 2/Corticotropin-releasing factor-binding protein; test: activators of CRF receptor 2 with binding protein – uHTS hits, confirmation (AID 602473); assay type: functional; conditions: read-out: EC50_Mean
[6] = test system: BJ; test: cells; assay type: functional, cell-based; conditions: Homo sapiens
[7] = test system: BJ; test: BJ-TERT-LT-ST fibroblast viability loss – cell-based, RAS-independent, luminescence, dose response (AID 1935); assay type: functional; conditions: Homo sapiens;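 also: BJ fibroblasts immortalized with TERT plus LT and ST oncogenes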
[8] = test system: BJ; test: BJ-TERT fibroblast viability loss – cell-based, RAS-independent, luminescence, dose response (AID 1933); assay type: functional; conditions: Homo sapiens
[9] = DRD fibroblast viability loss – cell-based, non-viral oncogenic, luminescence, dose response (AID 1934); assay type: functional; conditions: Homo sapiens
[10] = molecular target: T2, Rac GTPase-activating protein 1 (Homo sapiens, UniProt Q9H0H5); test: blockers of MgcRacGAP-driven Rac1 GTP hydrolysis – biochemical, ADP Hunter fluorescence, primary and confirmatory, confirmation (AID 624330); assay type: functional
T2 sequence (Q9H0H5 whole entry): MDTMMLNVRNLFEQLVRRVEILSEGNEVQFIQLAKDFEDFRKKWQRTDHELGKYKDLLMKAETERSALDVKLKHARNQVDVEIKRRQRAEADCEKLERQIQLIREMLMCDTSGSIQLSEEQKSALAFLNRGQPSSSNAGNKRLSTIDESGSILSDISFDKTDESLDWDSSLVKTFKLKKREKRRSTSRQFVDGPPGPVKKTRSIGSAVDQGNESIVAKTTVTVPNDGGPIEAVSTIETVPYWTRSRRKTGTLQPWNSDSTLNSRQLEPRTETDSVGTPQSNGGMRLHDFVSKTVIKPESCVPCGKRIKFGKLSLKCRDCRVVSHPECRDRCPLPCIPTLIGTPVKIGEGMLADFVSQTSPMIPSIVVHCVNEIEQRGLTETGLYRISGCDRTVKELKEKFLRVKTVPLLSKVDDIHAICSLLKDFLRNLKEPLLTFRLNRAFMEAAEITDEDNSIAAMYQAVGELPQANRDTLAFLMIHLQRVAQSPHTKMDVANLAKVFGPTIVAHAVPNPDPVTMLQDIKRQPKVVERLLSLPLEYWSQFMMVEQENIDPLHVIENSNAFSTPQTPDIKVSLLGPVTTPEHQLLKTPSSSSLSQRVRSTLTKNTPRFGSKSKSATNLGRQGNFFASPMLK

[11] = molecular target: Cytochrome P450 2D6 (Homo sapiens, UniProt P10635);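 also: CYP2D6 member of a cytochrome P450 panel assay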
[12] = molecular target: T3, Calpain-2 catalytic subunit (Sus scrofa, UniProt P43367); test: m-calpain protease blockers, concentration series – biochemical, fluorogenic peptide substrate, dose response (AID 1420); assay type: functional
T3 sequence (P43367 whole entry): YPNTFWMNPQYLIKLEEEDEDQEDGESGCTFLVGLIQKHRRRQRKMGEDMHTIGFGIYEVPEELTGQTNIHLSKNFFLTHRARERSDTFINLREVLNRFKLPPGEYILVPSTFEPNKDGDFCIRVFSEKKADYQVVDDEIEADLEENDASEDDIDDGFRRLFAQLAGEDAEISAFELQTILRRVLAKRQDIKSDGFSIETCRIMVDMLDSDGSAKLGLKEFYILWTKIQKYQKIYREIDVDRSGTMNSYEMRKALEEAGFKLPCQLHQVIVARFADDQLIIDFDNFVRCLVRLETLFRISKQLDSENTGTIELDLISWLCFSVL

[13] = molecular target: T4, Polyadenylate-binding protein 1 (Homo sapiens, UniProt P11940); test: MLLE binding blockers, Cy5 peptide tracer – biochemical, fluorescence polarization, Cy5-PAM2 peptide, secondary, miRNA deadenylation inhibitor project, dose response (AID 602260); assay type: functional; conditions: read-out: IC50_Mean
[14] = molecular target: T4, Polyadenylate-binding protein 1; test: MLLE domain peptide-binding blockers, IC50 – biochemical, fluorescence polarization, FITC-PAM2 peptide, dose response (AID 602259); assay type: functional; conditions: read-out: IC50_Mean

T4 sequence (P11940 whole entry, the tested form may be a part): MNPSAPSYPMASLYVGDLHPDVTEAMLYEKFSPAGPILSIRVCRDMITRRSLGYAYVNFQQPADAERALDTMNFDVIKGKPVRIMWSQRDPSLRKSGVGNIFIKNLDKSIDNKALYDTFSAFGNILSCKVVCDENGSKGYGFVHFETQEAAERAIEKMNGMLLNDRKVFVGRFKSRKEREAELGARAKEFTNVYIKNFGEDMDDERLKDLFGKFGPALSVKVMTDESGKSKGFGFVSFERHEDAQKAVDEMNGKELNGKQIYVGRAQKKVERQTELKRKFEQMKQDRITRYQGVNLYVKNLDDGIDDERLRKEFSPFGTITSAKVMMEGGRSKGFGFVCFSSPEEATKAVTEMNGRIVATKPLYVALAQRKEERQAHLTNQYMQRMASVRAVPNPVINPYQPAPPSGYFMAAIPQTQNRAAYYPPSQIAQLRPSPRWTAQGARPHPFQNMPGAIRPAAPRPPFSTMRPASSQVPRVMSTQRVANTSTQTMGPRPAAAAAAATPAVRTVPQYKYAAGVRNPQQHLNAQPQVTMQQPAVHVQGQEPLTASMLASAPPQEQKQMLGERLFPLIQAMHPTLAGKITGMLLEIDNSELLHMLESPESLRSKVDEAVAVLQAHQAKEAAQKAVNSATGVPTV
Chain of Cytochrome P450 2D6 (P10635 whole entry): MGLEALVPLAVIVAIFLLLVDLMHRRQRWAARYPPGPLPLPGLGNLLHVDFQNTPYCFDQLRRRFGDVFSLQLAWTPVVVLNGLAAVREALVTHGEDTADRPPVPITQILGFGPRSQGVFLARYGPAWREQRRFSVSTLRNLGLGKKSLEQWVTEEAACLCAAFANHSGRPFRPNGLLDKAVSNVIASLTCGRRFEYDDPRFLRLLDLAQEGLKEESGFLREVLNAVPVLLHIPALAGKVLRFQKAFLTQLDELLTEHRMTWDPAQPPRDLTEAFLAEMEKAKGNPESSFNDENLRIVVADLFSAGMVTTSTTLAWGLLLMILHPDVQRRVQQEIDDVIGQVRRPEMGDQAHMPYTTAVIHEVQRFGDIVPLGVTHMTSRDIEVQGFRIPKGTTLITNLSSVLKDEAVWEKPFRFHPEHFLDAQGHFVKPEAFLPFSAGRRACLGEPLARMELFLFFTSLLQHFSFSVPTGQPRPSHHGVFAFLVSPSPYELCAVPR

Structure (SMILES): CCOCCCN=C(S)Nc1cc(C)cc(C)c1
EC50 [1]: > 350 µM (not active)
EC50 [2]: > 350 µM (not active)

Structure (SMILES): O=C(CSc1ccc(-c2ccccn2)nn1)Nc1nccs1
EC50 [1]: > 350 µM (not active)
EC50 [2]: > 350 µM (not active)

Structure (SMILES): Cc1ccc(-n2c(C)cc(C(=O)COC(=O)c3c(C)noc3C)c2C)cc1
EC50 [3]: 0.413 µM (active)

Structure (SMILES): CCCCn1c(N)c(N(CC)C(=O)c2cc(OC)cc(OC)c2)c(=O)[nH]c1=O
EC50 [1]: > 350 µM (not active)
EC50 [2]: > 350 µM (not active)

Structure (SMILES): Cc1occc1C(=O)NC(C)C12CC3CC(CC(C3)C1)C2 (configuration not stated)
IC50 [4]: > 47.1 µM (inactive)
EC50 [5]: > 53 µM (inactive)

Structure (SMILES): Cc1ccc(CCC(=O)Nc2ncc(Cc3cccc(Cl)c3Cl)s2)o1
EC50 [6]: 0.668 µM (active)
EC50 [7]: 0.216 µM (inconclusive)
EC50 [8]: 0.311 µM (active)
EC50 [9]: 0.381 µM (active)

Structure (SMILES): c1ccc(CNC23CC4CC(CC(C4)C2)C3)nc1
IC50 [10]: 110 µM (active)

Structure (SMILES): COc1cccc(OC)c1OCCCN1CCOCC1
IC50 [10]: 162 µM (active)
AC50 [11]: 39.8 µM (inconclusive)

Structure (SMILES): CCCN(CCC)C(C)C(=O)NCC1(c2ccccc2)CCCC1 (configuration not stated)
EC50 [1]: > 350 µM (not active)
EC50 [2]: 45.6 µM (active)

Structure (SMILES): CCOC(=O)c1c(-c2ccc(C)o2)csc1NC(=S)NC(=O)c1ccc(F)cc1
IC50 [13]: > 66 µM (inactive)
IC50 [14]: > 66 µM (inactive)

Structure (SMILES): CC(=O)/C(C#N)=C1\NC(=O)C(Cc2cc(Cl)ccc2Cl)S1 (configuration not stated)
EC50 [6]: 61.2 µM (active)
EC50 [7]: > 150 µM (not active)
EC50 [8]: > 150 µM (not active)
EC50 [9]: 76.8 µM (active)

Structure (SMILES): Cc1noc(C)c1COc1ccc(C(=O)OCc2nnc(-c3ccc(Cl)cc3)o2)cc1
IC50 [12]: 4.47 µM (not active)

Structure (SMILES): S=C(N/N=C/c1cccc2ccccc12)Nc1cccc(Cl)c1
EC50 [1]: > 350 µM (not active)
EC50 [2]: > 350 µM (not active)

Further lines, results first:

IC50 [4]: > 47.1 µM (inactive)
EC50 [5]: > 53 µM (inactive)
Structure (SMILES): O=C(CN1c2cccc3cccc(c23)S1(=O)=O)NC1CCCCC1

IC50 [12]: 17.4 µM (not active)
Structure (SMILES): O=C(CN1C(=O)NC(Cc2ccccc2)C1=O)Nc1ccccc1 (configuration not stated)

IC50 [10]: 54.9 µM (active)
Structure (SMILES): CCOc1cc(/C=N/NC(=O)C(OC)c2ccccc2)ccc1O (configuration not stated)

IC50 [4]: > 47.1 µM (inactive)
EC50 [5]: > 53 µM (inactive)
Structure (SMILES): CCc1ccc(Nc2nnc(SC(C)C(=O)NC3CC3)s2)cc1 (configuration not stated)

IC50 [13]: > 66 µM (inactive)
IC50 [14]: > 66 µM (inactive)
Structure (SMILES): CC(=O)c1ccc(NC(=O)C2CCCNC2=O)cc1 (configuration not stated)

IC50 [4]: > 47.1 µM (inactive)
EC50 [5]: > 53 µM (inactive)
Structure (SMILES): CSc1ccc(S(=O)(=O)NCC(=O)OCC(=O)N(Cc2ccccc2)C(C)C)cc1[N+](=O)[O-]

IC50 [13]: > 66 µM (inactive)
IC50 [14]: > 66 µM (inactive)
Structure (SMILES): O=C(CSc1ccc(-c2cccnc2)nn1)c1ccc([N+](=O)[O-])cc1

IC50 [13]: > 66 µM (inactive)
IC50 [14]: 56.6 µM (inactive)
Structure (SMILES): COc1cccc(/C=C2\SC(=O)N(CC(=O)NC3C=CS(=O)(=O)C3)C2=O)c1 (configuration not stated)

IC50 [10]: 152 µM (active)
Structure (SMILES): CSCc1ccc(C(=O)N2CCCC(Nc3ccc4c(c3)OCCO4)C2)o1 (configuration not stated)
